Assay results reported in article PMC7555312, “Functional Characterization of Temporin-SHe, a New Broad-Spectrum Antibacterial and Leishmanicidal Temporin-SH Paralog from the Sahara Frog (Pelophylax saharicus)” (International Journal of Molecular Sciences, 2020).
Where no end group is shown, it is not given here.

What was measured:
human THP-1 monocytes = conditions: taken from literature; cited from earlier work
L. ivanovii (Li4pVS2) = conditions: liquid growth inhibition (CLSI), 10^6 CFU/mL in brain heart infusion (BHI) medium, 37 °C, 18–20 h, OD 630 nm; mean of three independent experiments in triplicate
Experimental: Antibacterial activity of temporin-SHe was evaluated against Gram-positive bacteria including S. aureus strains (ATCC 25923, ST1065), antibiotic-resistant S. aureus strains (ATCC 43300, ATCC BAA-44), E. faecalis (ATCC 29212), B. megaterium, and L. ivanovii (Li4pVS2), and Gram-negative bacteria including E. coli strains (ATCC 25922, ATCC 35218, ML-35p), S. enterica (serotype Enteritidis), P. aeruginosa (ATCC 27853), A. baumannii (ATCC 19606) and K. pneumoniae (ATCC 13883). Antifungal activity was evaluated against C. albicans (ATCC 90028), C. parapsilosis (ATCC 22019) and S. cerevisiae. ATCC strains were purchased from American-Type Culture Collection (ATCC, Virginia, VA, USA). Antiparasitic activity was determined against promastigotes of several species of Leishmania responsible for visceral, cutaneous and mucocutaneous leishmaniases: L. infantum (strain MHOM/MA/67/ITMAP-263), L. major (strain MHOM/SU/73/5-ASKH), and L. braziliensis (strain MHOM/BR/75/M2904), respectively. Cytotoxicity was assessed against human red blood cells and THP-1 monocytes. Peripheral blood was obtained from healthy adult donors (Établissement Français du Sang, Paris, France). All donors signed informed consent allowing the use of their blood for research purposes.
Antimicrobial activity was assessed with a liquid growth inhibition assay performed according to a previously described protocol using the Clinical and Laboratory Standards Institute (CLSI) guidelines. Briefly, in 96-well microtitration plates, mid-log-phase bacteria diluted to 10^6 CFU/mL in Mueller–Hinton (MH) broth were added to different concentrations of synthetic temporin-SHe (1–200 µM, final concentrations) and incubated at 37 °C for 18–20 h, under shaking (150 rpm). For E. faecalis, L. ivanovii and yeasts/fungi, 10^6 CFU/mL suspensions were prepared in LB broth, brain heart infusion (BHI) medium and Yeast Peptone Dextrose (YPD) medium, respectively, and incubation was performed at 30 °C for yeasts/fungi. […] MIC values represent the average of three independent experiments, each performed in triplicate with negative (no peptide) and positive (formaldehyde 0.7%) controls.

Nocardia asteroides = tested on: Nocardia asteroides; design: method as in 2 sources, ref 48 = [48]; PMID 28402481; doi:10.1093/abbs/gmx032; 48. Wang X. Ren S. Guo C. Zhang W. Zhang X. Zhang B. Li S. Ren J. Hu Y. Wang H. Identification and functional analyses of novel antioxidant peptides and antimicrobial peptides from skin secretions of ||| ref 49 = [49]; PMID 25066917; doi:10.1016/j.biochi.2014.07.013; 49. Guo C. Hu Y. Li J. Liu Y. Li S. Yan K. Wang X. Liu J. Wang H. Identification of multiple peptides with antioxidant and antimicrobial activities from skin and its secretions of Hylarana taipehensis; conditions: cited from earlier work
S. aureus = tested on: S. aureus; design: method as in 3 sources, one per row (each row's own in cited_ref): ref 46 = [46]; PMID 14499272; doi:10.1016/S0196-9781(03)00193-1; 46. Ali M.F. Knoop F.C. Vaudry H. Conlon J.M. Characterization of novel antimicrobial peptides from the skins of frogs of the Rana esculenta complex Peptides 2003 24 955 961 10.1016/S0196-9781(03)0019 ||| ref 48 = [48]; PMID 28402481; doi:10.1093/abbs/gmx032; 48. Wang X. Ren S. Guo C. Zhang W. Zhang X. Zhang B. Li S. Ren J. Hu Y. Wang H. Identification and functional analyses of novel antioxidant peptides and antimicrobial peptides from skin secretions of ||| ref 49 = [49]; PMID 25066917; doi:10.1016/j.biochi.2014.07.013; 49. Guo C. Hu Y. Li J. Liu Y. Li S. Yan K. Wang X. Liu J. Wang H. Identification of multiple peptides with antioxidant and antimicrobial activities from skin and its secretions of Hylarana taipehensis; conditions: cited from earlier work
E. faecalis = tested on: E. faecalis; design: method as in 2 sources, ref 48 = [48]; PMID 28402481; doi:10.1093/abbs/gmx032; 48. Wang X. Ren S. Guo C. Zhang W. Zhang X. Zhang B. Li S. Ren J. Hu Y. Wang H. Identification and functional analyses of novel antioxidant peptides and antimicrobial peptides from skin secretions of ||| ref 49 = [49]; PMID 25066917; doi:10.1016/j.biochi.2014.07.013; 49. Guo C. Hu Y. Li J. Liu Y. Li S. Yan K. Wang X. Liu J. Wang H. Identification of multiple peptides with antioxidant and antimicrobial activities from skin and its secretions of Hylarana taipehensis; conditions: cited from earlier work
[1] = tested on: Candida species (C. albicans and C. glabrata); design: method as in PMID 28402481; conditions: cited from earlier work
[2] = tested on: Gram-negative bacteria (E. coli, P. aeruginosa, and K. pneumoniae); design: method as in PMID 28402481; conditions: cited from earlier work
E. coli = tested on: E. coli; design: method as in PMID 14499272; conditions: cited from earlier work
L. mexicana amastigotes = conditions: cited from earlier work
Excerpt: Temporin-SHe represents an additional temporin with antiparasitic properties. This peptide was able to kill promastigote forms of the human parasite Leishmania, responsible for visceral (L. infantum), cutaneous (L. major) and muco-cutaneous (L. braziliensis) leishmaniasis. […] Until today, only six temporins (Ta, Tb, SHa, SHd, Tl and Tf) have been described as antiparasitic peptides and very few AMPs of other families are active against parasites (The Antimicrobial Peptide ...

## FLPAALAGIGGILGKLF-NH2 [Temporin-SHd, reference compound]
Human THP-1 monocytes
  LC50 (lethal concentration 50): 66 µM
L. ivanovii (Li4pVS2)
  MIC: 10 µM

## FLPFLAGLFGKIF-NH2 [Temporin-HB2, temporin isolated from the Hubei Frog Pelophylax hubeiensis]
Nocardia asteroides
  MIC: 75 µM
S. aureus
  MIC: 150 µM
E. faecalis
  MIC: 19 µM
[1]
  activity against Candida species: No activity
[2]
  activity against Gram-negative bacteria: No activity

## FLPLLFGALSTLLPKIF-NH2 [Temporin-TP3, temporin isolated from skin secretions of Hylarana taipehensis]
Nocardia asteroides
  MIC: 12.5 µM
S. aureus
  MIC: 25 µM
E. faecalis
  MIC: 50 µM

## FLPVIAGLLSKLF-NH2 [Temporin-1Ec, temporin isolated from Pelophylax lessonae/ridibundus]
S. aureus
  MIC: 8 µM
E. coli
  MIC: > 100 µM

## FLSGIVGMLGKLF-NH2 [Temporin-SHa, 13-residue temporin-SH from Pelophylax saharicus]
L. mexicana amastigotes
  less efficiency against L. mexicana amastigotes (compared with promastigotes): approximately 10 fold
